Test results from patent US20050222271A1, “Novel amorphous form of memantine hydrochloride” (priority 2004, published 2005).

Assay: Solubility (complete dissolution) of memantine hydrochloride in solvents
Format: physicochemical
Description: In particular, memantine hydrochloride is soluble in water, allowing the complete dissolution of memantine hydrochloride at room temperature at a concentration of 50 mg per milliliter (ml). The use of a relatively concentrated solution, e.g. about 50 mg per ml is therefore preferred.
In a first step of the distillation process, memantine hydrochloride is preferably dissolved in an […] solvent; more preferably dissolved in a straight or branched chain C1-C4 alcohol solvent, and most preferably dissolved in methanol or ethanol to form a solution. Memantine hydrochloride is soluble in methanol or ethanol, allowing the complete dissolution of memantine hydrochloride at ambient temperature.
(§1) In particular, memantine hydrochloride is soluble in methanol, allowing the complete dissolution of memantine hydrochloride in methanol at ambient temperature with a concentration of 30 mg per milliliter (ml). The use of a relatively concentrated solution, e.g. about 30 mg per ml is therefore preferred for methanol.
as §1, with “ethanol,” for “methanol,”, “ethanol” for “methanol”, “20” for “30”, “ml.” for “milliliter (ml).”, “ethanol.” for “methanol.”

solubility in ethanol (complete dissolution with a concentration of) (ethanol, ambient temperature): ≥ 20 mg per ml | solubility in methanol (complete dissolution with a concentration of) (methanol, ambient temperature): ≥ 30 mg per milliliter (ml) | solubility in water (complete dissolution at a concentration of) (water, room temperature): ≥ 50 mg per milliliter (ml)
Compound: CC12CC3CC(C)(C1)CC(N)(C3)C2.Cl [memantine hydrochloride, 1-amino-3,5-dimethyltricyclo[3,3,1,1^3,7]decane hydrochloride]
